According to article PMC11527646, “Pharmacological blockade of the mast cell MRGPRX2 receptor supports investigation of its relevance in skin disorders” (Frontiers in Immunology, 2024):
Read-outs that look alike come from different tables or passages of the source.

How the values were obtained:
M2 receptor (CHRM2) = biological target: T1, M2 receptor (CHRM2) (Homo sapiens, UniProt P08172); assay: GPCR selectivity cellular assay; type: cell-based; settings: for EC50: Agonism, read-out: Agonist Activity (EC50); for IC50: Antagonism, read-out: Antagonist Activity (IC50)
T1 construct: expressed in transfected cells
T1 sequence (P08172 1-466): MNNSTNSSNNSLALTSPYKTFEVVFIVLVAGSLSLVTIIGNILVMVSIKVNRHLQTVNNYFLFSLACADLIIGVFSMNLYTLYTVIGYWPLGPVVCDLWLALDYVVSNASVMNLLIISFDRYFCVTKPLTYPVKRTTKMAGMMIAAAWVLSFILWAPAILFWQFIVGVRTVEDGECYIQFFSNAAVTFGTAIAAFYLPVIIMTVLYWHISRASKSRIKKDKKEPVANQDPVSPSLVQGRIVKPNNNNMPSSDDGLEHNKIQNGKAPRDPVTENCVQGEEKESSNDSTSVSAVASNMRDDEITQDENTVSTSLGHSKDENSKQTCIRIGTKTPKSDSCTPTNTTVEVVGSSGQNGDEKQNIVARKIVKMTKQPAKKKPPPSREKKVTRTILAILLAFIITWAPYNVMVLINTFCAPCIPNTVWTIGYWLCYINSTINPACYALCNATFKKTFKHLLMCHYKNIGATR
Protocol: (§1) tagonists, with little activity detected on other GPCRs. Antagonist and/or agonist activities of the two compounds were determined in cellular assays for 20 human G-protein coupled receptors (GPCR) beside MRGPRX2. Recombinant over-expression systems in mammalian cells were used for all assays listed in this table. […]
(§2) reported as ‘>’ the highest compound concentration allowed in that assay.
(§3) GPCR Target Name Gene symbol Mode of Activity Compound-A Compound-B […]
(§4) Agonist Activity (EC50 ) or Antagonist Activity (IC50 ), nM […]

V1A receptor (AVPR1A) = biological target: T2, V1A receptor (AVPR1A) (Homo sapiens, UniProt P37288); assay: GPCR selectivity cellular assay; type: cell-based; settings: Antagonism; read-out: Antagonist Activity (IC50)
T2 construct: expressed in transfected cells
T2 sequence (P37288 whole entry): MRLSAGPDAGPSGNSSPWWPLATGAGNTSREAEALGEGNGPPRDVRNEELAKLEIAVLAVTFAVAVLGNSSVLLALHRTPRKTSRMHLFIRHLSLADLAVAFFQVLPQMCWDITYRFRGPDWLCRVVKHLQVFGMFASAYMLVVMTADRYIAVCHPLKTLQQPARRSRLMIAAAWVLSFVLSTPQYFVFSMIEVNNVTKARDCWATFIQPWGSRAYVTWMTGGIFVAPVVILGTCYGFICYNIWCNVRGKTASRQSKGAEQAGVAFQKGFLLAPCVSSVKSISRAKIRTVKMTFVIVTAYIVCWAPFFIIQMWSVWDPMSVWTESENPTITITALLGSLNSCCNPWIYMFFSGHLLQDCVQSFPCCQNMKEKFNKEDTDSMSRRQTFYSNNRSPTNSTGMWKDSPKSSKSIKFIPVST
Protocol: as §1, §2, §3, §4

k-Receptor (OPRK1) = k-Receptor (OPRK1) (Homo sapiens, UniProt P41145); assay: GPCR selectivity cellular assay; type: cell-based
Sequence of k-Receptor (OPRK1) (P41145 whole entry): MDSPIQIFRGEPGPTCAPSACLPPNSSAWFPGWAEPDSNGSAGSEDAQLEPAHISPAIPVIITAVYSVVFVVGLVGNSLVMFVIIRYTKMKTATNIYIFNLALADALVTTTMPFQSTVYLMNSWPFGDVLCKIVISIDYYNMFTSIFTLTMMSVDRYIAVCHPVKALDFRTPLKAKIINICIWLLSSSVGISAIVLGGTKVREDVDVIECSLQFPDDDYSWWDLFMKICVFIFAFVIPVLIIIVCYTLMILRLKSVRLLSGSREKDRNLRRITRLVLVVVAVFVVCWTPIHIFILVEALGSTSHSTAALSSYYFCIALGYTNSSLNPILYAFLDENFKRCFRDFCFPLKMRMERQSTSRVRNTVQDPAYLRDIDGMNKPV
Protocol: as §1, §2, §3, §4

NK1 receptor (TACR1) = NK1 receptor (TACR1) (Homo sapiens, UniProt P25103); assay: GPCR selectivity cellular assay; type: cell-based; settings: Antagonism; read-out: Antagonist Activity (IC50)
Sequence of NK1 receptor (TACR1) (P25103 whole entry): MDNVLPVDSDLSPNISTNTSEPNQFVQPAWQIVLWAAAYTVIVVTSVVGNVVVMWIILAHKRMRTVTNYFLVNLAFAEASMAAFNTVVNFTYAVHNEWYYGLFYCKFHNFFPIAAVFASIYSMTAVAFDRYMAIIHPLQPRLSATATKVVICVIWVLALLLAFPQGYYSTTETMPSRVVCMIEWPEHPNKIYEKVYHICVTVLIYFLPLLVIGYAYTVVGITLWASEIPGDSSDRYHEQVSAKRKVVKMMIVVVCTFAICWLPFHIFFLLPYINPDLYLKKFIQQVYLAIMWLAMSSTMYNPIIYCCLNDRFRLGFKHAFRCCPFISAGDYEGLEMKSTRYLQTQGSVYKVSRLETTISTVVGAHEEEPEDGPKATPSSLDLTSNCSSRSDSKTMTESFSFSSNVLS
Protocol: as §1, §2, §3, §4

H1 receptor (HRH1) = biological target: T3, H1 receptor (HRH1) (Homo sapiens, UniProt P35367); assay: GPCR selectivity cellular assay; type: cell-based; settings: Antagonism; read-out: Antagonist Activity (IC50)
T3 construct: expressed in transfected cells
T3 sequence (P35367 whole entry): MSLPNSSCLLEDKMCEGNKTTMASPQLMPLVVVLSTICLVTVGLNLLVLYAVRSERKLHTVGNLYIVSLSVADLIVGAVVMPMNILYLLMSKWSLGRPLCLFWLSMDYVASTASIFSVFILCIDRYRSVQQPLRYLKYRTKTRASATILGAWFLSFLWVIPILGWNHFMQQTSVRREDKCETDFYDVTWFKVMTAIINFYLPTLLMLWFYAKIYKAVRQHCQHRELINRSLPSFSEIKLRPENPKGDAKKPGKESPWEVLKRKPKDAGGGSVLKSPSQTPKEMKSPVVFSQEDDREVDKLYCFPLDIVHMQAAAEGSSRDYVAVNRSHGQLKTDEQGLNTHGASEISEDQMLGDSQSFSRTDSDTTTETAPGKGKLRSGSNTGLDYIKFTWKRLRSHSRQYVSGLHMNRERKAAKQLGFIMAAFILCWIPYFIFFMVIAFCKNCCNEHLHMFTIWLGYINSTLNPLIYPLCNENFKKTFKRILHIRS
Protocol: as §1, §2, §3, §4

5-HT2B receptor (HTR2B) = 5-HT2B receptor (HTR2B) (Homo sapiens, UniProt P41595); assay: GPCR selectivity cellular assay; type: cell-based; settings: Agonism; read-out: Agonist Activity (EC50)
Sequence of 5-HT2B receptor (HTR2B) (P41595 whole entry): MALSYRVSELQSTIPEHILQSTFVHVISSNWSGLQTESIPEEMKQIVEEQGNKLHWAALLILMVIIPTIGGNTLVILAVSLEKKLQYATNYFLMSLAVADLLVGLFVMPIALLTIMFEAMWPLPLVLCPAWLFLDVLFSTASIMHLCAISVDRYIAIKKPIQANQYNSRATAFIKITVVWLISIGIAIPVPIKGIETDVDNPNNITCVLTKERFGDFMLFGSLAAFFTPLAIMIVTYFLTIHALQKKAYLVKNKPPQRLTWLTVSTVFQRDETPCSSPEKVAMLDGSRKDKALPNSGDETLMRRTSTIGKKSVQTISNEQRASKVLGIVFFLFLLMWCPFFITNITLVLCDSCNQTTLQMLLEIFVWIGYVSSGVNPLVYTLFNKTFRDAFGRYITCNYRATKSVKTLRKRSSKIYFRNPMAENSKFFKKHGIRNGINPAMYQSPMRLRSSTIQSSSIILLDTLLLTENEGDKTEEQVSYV
Protocol: as §1, §2, §3, §4

5-HT1B receptor (HTR1B) = biological target: T4, 5-HT1B receptor (HTR1B) (Homo sapiens, UniProt P28222); assay: GPCR selectivity cellular assay; type: cell-based; settings: Agonism; read-out: Agonist Activity (EC50)
T4 construct: expressed in transfected cells
T4 sequence (P28222 whole entry): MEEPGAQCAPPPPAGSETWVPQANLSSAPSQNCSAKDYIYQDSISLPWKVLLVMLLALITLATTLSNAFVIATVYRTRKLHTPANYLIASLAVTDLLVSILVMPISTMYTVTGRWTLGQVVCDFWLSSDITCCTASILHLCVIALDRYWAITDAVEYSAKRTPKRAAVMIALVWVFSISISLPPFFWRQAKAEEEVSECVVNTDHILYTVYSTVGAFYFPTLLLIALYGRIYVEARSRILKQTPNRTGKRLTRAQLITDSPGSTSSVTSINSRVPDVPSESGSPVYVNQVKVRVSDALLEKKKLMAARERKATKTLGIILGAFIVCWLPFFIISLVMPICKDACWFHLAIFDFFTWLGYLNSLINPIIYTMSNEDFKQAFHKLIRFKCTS
Protocol: as §1, §2, §3, §4

M1 receptor (CHRM1) = biological target: T5, M1 receptor (CHRM1) (Homo sapiens, UniProt P11229); assay: GPCR selectivity cellular assay; type: cell-based; settings: for EC50: Agonism, read-out: Agonist Activity (EC50); for IC50: Antagonism, read-out: Antagonist Activity (IC50)
T5 construct: expressed in transfected cells
T5 sequence (P11229 1-460): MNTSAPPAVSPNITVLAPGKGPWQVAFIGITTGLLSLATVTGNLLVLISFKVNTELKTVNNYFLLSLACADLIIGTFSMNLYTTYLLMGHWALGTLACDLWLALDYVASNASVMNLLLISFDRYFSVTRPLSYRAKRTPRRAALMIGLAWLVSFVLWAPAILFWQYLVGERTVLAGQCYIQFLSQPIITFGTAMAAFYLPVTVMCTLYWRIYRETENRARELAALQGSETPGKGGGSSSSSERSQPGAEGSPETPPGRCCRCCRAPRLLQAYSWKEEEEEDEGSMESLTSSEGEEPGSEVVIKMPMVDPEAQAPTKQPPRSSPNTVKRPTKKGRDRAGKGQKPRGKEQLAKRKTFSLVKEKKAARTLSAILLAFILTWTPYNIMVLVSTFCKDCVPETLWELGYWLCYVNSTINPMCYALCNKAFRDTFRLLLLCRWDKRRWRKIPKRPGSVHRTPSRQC
Protocol: as §1, §2, §3, §4

5-HT2A receptor (HTR2A) = 5-HT2A receptor (HTR2A) (Homo sapiens, UniProt P28223); assay: GPCR selectivity cellular assay; type: cell-based
Sequence of 5-HT2A receptor (HTR2A) (P28223 whole entry): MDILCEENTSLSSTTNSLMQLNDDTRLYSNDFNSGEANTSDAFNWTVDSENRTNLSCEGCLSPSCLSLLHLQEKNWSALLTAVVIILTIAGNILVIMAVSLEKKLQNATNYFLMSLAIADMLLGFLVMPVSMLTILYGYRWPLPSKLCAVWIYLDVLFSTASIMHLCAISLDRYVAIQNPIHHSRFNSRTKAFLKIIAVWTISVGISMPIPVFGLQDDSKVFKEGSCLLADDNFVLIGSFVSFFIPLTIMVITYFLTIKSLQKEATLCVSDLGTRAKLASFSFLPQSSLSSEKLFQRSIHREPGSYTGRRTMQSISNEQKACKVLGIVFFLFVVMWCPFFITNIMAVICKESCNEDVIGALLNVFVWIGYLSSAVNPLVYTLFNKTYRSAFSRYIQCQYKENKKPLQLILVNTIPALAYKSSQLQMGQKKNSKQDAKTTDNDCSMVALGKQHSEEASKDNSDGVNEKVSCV
Protocol: as §1, §2, §3, §4

D1 receptor (DRD1) = biological target: T6, D1 receptor (DRD1) (Homo sapiens, UniProt P21728); assay: GPCR selectivity cellular assay; type: cell-based; settings: Antagonism; read-out: Antagonist Activity (IC50)
T6 construct: expressed in transfected cells
T6 sequence (P21728 whole entry): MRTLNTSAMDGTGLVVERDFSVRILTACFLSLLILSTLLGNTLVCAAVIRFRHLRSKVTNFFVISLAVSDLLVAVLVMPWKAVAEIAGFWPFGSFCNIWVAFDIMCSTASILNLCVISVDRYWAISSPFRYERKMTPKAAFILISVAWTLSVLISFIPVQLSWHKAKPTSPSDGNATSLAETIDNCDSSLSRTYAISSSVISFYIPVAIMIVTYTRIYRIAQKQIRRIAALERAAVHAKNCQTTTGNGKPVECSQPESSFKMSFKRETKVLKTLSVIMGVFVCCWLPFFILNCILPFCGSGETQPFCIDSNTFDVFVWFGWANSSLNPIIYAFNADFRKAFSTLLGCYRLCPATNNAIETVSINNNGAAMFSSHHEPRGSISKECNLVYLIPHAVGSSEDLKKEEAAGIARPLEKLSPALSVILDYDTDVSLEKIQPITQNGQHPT
Protocol: as §1, §2, §3, §4

CB1 receptor (CNR1) = biological target: T7, CB1 receptor (CNR1) (Homo sapiens, UniProt P21554); assay: GPCR selectivity cellular assay; type: cell-based
T7 construct: expressed in transfected cells
T7 sequence (P21554 whole entry): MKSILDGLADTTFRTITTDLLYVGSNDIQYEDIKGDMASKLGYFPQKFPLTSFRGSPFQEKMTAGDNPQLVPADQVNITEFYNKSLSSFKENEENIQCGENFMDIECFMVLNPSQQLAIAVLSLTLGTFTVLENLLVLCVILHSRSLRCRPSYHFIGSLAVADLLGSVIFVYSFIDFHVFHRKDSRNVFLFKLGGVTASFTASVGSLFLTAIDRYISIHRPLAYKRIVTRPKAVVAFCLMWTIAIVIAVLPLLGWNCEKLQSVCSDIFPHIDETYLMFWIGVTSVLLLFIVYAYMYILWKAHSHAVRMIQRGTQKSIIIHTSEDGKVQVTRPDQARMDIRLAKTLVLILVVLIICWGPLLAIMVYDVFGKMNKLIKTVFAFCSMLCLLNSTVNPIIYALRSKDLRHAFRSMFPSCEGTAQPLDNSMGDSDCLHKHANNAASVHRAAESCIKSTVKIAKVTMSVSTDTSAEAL
Protocol: as §1, §2, §3, §4

[1] = biological target: T8, a1B-Adrenoreceptor (ADRA1B) (Homo sapiens, UniProt P35368); assay: GPCR selectivity cellular assay; type: cell-based; settings: Antagonism; read-out: Antagonist Activity (IC50)
T8 construct: expressed in transfected cells
T8 sequence (P35368 whole entry): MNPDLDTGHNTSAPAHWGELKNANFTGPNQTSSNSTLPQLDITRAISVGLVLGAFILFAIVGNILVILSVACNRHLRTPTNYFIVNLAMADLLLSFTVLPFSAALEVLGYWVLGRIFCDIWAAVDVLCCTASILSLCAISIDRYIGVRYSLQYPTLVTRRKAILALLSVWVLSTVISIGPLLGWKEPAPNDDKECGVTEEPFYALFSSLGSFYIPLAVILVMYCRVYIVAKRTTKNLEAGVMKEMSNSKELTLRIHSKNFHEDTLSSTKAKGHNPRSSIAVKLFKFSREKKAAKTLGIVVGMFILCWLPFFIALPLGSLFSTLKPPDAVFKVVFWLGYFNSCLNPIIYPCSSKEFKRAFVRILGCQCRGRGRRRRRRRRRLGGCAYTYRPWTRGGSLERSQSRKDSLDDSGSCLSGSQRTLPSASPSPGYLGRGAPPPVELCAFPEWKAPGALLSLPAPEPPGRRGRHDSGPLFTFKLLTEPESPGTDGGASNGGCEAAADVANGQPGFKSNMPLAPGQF
Protocol: as §1, §2, §3, §4

5-HT2C receptor (HTR2C) = biological target: T9, 5-HT2C receptor (HTR2C) (Homo sapiens, UniProt P28335); assay: GPCR selectivity cellular assay; type: cell-based; settings: for EC50: Agonism, read-out: Agonist Activity (EC50); for IC50: Antagonism, read-out: Antagonist Activity (IC50)
T9 sequence (P28335 33-458): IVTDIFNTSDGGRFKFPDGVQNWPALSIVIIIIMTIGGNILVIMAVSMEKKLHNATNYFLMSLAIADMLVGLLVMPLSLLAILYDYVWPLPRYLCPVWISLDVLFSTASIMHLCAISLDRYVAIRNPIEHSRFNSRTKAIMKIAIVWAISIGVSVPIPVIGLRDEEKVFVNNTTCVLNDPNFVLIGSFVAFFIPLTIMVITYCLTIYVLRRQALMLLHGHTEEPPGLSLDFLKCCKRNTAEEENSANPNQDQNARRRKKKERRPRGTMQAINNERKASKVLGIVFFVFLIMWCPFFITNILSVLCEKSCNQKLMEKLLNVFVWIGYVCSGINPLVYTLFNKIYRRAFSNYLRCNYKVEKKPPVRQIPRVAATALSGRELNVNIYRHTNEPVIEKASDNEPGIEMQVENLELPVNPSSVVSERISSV
Protocol: as §1, §2, §3, §4

C3aR1 = biological target: T10, C3aR1 (Homo sapiens, UniProt Q16581); settings: for Effect on C3a-stimulated LAD2 degranulation: increasing concentrations of antagonist
T10 sequence (Q16581 1-482): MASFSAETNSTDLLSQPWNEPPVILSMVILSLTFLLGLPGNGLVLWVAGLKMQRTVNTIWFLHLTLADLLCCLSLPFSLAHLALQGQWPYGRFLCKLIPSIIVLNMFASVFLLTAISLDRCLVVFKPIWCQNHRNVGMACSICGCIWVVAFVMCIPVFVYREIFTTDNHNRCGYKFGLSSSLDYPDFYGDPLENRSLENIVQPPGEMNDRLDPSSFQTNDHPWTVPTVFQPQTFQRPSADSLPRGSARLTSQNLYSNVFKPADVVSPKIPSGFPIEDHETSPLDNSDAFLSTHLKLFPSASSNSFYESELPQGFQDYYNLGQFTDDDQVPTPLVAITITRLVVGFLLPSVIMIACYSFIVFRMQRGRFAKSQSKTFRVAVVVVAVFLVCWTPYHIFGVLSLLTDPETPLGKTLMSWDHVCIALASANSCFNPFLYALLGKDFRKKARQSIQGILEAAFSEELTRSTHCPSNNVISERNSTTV
From the text: Release of β-hexosaminidase from LAD2 cells was followed as a measurement of mast cell degranulation using a method described previously ([4]).
Potency data are presented as mean ± SEM.

[2] = Agonism, read-out: Agonist Activity (EC50)

Row | Structure (SMILES) | EC50 (M2 receptor (CHRM2)) | IC50 (M2 receptor (CHRM2)) | IC50 (V1A receptor (AVPR1A)) | IC50 (NK1 receptor (TACR1)) | IC50 (H1 receptor (HRH1)) | EC50 (5-HT2B receptor (HTR2B)) | EC50 (5-HT1B receptor (HTR1B)) | EC50 (M1 receptor (CHRM1)) | IC50 (M1 receptor (CHRM1)) | IC50 (D1 receptor (DRD1)) | IC50 [1] | EC50 (5-HT2C receptor (HTR2C)) | IC50 (5-HT2C receptor (HTR2C)) | IC50 (C3aR1) | Effect on C3a-stimulated LAD2 degranulation (C3aR1) | also measured
1 | CC1(C)C(C(=O)Nc2ccccn2)C1(C)C [Compound A] | > 50 µM | > 50 µM | > 50 µM | > 25 µM | > 25 µM | 27.1 µM | 11.9 µM | > 50 µM | > 50 µM | > 100 µM | > 25 µM | > 100 µM | > 100 µM | > 50 µM | lack of an effect | EC50 (k-Receptor (OPRK1)): > 100 µM; EC50 (5-HT2A receptor (HTR2A)): > 100 µM; IC50 (5-HT2A receptor (HTR2A)): 41.4 µM; EC50 (CB1 receptor (CNR1)): > 25 µM
2 | C[C@@H](C(=O)Nc1cnc(Oc2ccc(F)cc2F)cn1)N1CCC(F)(F)[C@@H](c2cc[n+]([O-])cc2)C1 [Compound B] | > 50 µM | > 50 µM | > 50 µM | > 25 µM | > 25 µM | > 100 µM | > 50 µM | > 50 µM | > 50 µM | > 100 µM | > 25 µM | > 100 µM | > 50 µM | > 50 µM | lack of an effect | EC50 (k-Receptor (OPRK1); [2]): > 100 µM; EC50 (5-HT2A receptor (HTR2A); [2]): > 100 µM; IC50 (5-HT2A receptor (HTR2A); Antagonism, read-out: Antagonist Activity (IC50)): > 100 µM; EC50 (CB1 receptor (CNR1); [2]): > 25 µM
